Assay results published in patent publication US9108921B2, “Therapeutic compounds and compositions” (AGIOS PHARMACEUTICALS, INC, priority 2014, dated 2015).

Columns and labels:
PKR R532W = PKR R532W (Homo sapiens, UniProt P30613, R532W); experiment: PKR Mutant Assay, AC50 against PKR R532W; assay type: biochemical; settings: mutant PKR R532W enzyme
How it was run: (§1)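 LDH-coupled NADH depletion read as A340 change at room temperature after ADP (0.22-1.65 mM) start. Compounds, tested from 100 μM final in 3-fold steps over 11 points with 1% DMSO, sat 60 min with enzyme (80-400 ng/well), PEP 0.1-0.5 mM and NADH 180 uM in Tris pH 7.5/KCl/MgCl2/DTT/BSA buffer.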

PKR WT [1] = target: T1, PKR WT (Homo sapiens, UniProt P30613); experiment: PKR WT cell based AC50 assay; settings: wild type PKR
T1 sequence (P30613 whole entry): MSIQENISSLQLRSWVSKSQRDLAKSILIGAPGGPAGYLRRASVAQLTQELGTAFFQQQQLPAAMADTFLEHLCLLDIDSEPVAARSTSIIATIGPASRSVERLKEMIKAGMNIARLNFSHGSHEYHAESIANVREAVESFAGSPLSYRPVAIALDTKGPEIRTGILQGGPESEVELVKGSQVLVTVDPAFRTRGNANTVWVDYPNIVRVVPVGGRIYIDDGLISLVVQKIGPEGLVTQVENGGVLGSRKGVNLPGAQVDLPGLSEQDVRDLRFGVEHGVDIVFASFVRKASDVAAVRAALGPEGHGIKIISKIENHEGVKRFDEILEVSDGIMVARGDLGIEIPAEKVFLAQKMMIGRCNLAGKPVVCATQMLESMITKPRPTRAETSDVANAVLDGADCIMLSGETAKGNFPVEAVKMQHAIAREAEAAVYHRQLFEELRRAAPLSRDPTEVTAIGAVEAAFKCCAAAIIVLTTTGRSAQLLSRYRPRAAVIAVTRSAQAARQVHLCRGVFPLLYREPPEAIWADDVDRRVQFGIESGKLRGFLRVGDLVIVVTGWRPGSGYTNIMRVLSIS

PKR WT [2] = target: T1, PKR WT; experiment: PKR WT enzymatic AC50 assay; assay type: biochemical; settings: wild type PKR
How it was run: as §1

PKR R510Q = PKR R510Q (Homo sapiens, UniProt P30613, R510Q); experiment: PKR Mutant Assay, AC50 against PKR R510Q; assay type: biochemical; settings: mutant PKR R510Q enzyme
Sequence of PKR R510Q (P30613 whole entry R510Q): as the sequence (P30613 whole entry) above, with R510Q counted along it
How it was run: as §1

Sequence of PKR R532W (P30613 whole entry R532W): as the sequence (P30613 whole entry) above, with R532W counted along it

SMILES | AC50 (PKR R532W) [nM] | AC50 (PKR WT [1]) [nM] | AC50 (PKR WT [2]) [nM] | AC50 (PKR R510Q) [nM]
Nc1nc2c(S(=O)(=O)Nc3ccc(C(=O)N4CCC(O)(CCCC(F)(F)F)CC4)cc3)cccc2s1 [Compound 420] | < 100 | < 100 | < 100 | < 100
O=C(c1ccc(NS(=O)(=O)c2cccc3cccnc23)cc1)N1CCC(O)(c2cnsc2)CC1 [Compound 353] | < 100 | < 100 | < 100 | 101 to 1000
CC(C)CC1(O)CCN(C(=O)c2ccc(NS(=O)(=O)c3cccc4c3OCO4)cc2)CC1 [Compound 423] | < 100 | < 100 | < 100 | 101 to 1000
Cc1cc(F)ccc1C1(O)CCN(C(=O)c2ccc(NS(=O)(=O)c3cccc4cccnc34)cc2)CC1 [Compound 138, N-(4-(4-(4-fluoro-2-methylphenyl)-4-hydroxypiperidine-1-carbonyl)phenyl)quinoline-8-sulfonamide] | < 100 | < 100 | < 100 | < 100
O=C(c1ccc(NS(=O)(=O)c2cccc3cccnc23)cc1)N1CCC(O)(c2cccc(F)c2)CC1 [Compound 142, N-(4-(4-(3-fluorophenyl)-4-hydroxypiperidine-1-carbonyl)phenyl)quinoline-8-sulfonamide] | < 100 | < 100 | < 100 | 101 to 1000

The remaining lines, values ahead:

AC50 (PKR R532W) [nM] | AC50 (PKR WT [1]) [nM] | AC50 (PKR WT [2]) [nM] | AC50 (PKR R510Q) [nM] | SMILES
< 100 | < 100 | < 100 | 101 to 1000 | O=C(c1ccc(NS(=O)(=O)c2cccc3cccnc23)cc1)N1CCC(O)(c2ncccc2Cl)CC1 [Compound 191, N-(4-(4-(3-chloropyridin-2-yl)-4-hydroxypiperidine-1-carbonyl)phenyl)quinoline-8-sulfonamide]
< 100 | 101 to 1000 | < 100 | 101 to 1000 | Cc1nc(C(=O)N2CCC(O)(c3ccccc3Cl)CC2)ccc1NS(=O)(=O)c1cccc2cccnc12 [Compound 210, N-(6-(4-(2-chlorophenyl)-4-hydroxypiperidine-1-carbonyl)-2-methylpyridin-3-yl)quinoline-8-sulfonamide]
101 to 1000 | 101 to 1000 | < 100 | 101 to 1000 | O=C(c1ccc(NS(=O)(=O)c2cccc3cccnc23)cc1)N1CCC(O)(c2cccnc2F)CC1 [Compound 217, N-(4-(4-(2-fluoropyridin-3-yl)-4-hydroxypiperidine-1-carbonyl)phenyl)quinoline-8-sulfonamide]
< 100 | 101 to 1000 | < 100 | 101 to 1000 | O=C(c1ccc(NS(=O)(=O)c2cccc3cccnc23)c2ccccc12)N1CCC(O)(c2ccccc2Cl)CC1 [Compound 226, N-(4-(4-(2-chlorophenyl)-4-hydroxypiperidine-1-carbonyl)naphthalen-1-yl)quinoline-8-sulfonamide]
